Reference: patent publication US7192956B2, “Methods of treating hormone-related conditions using cyclothiocarbamate derivatives” (Wyeth, priority 2002, dated 2007)

Tests used:
[1] = target: T1, androgen receptor (AR) (Mus musculus, UniProt P19091); experiment: AR agonistic activity, PRE-tk-luciferase reporter in L929 cells; format: cell-based; settings: at the maximum concentration tested (i.e., 10 nM)
T1 construct: the L929 cells which express the AR but not the PR; endogenous in cells; host or cells: L929 cells
T1 sequence (P19091 1-899): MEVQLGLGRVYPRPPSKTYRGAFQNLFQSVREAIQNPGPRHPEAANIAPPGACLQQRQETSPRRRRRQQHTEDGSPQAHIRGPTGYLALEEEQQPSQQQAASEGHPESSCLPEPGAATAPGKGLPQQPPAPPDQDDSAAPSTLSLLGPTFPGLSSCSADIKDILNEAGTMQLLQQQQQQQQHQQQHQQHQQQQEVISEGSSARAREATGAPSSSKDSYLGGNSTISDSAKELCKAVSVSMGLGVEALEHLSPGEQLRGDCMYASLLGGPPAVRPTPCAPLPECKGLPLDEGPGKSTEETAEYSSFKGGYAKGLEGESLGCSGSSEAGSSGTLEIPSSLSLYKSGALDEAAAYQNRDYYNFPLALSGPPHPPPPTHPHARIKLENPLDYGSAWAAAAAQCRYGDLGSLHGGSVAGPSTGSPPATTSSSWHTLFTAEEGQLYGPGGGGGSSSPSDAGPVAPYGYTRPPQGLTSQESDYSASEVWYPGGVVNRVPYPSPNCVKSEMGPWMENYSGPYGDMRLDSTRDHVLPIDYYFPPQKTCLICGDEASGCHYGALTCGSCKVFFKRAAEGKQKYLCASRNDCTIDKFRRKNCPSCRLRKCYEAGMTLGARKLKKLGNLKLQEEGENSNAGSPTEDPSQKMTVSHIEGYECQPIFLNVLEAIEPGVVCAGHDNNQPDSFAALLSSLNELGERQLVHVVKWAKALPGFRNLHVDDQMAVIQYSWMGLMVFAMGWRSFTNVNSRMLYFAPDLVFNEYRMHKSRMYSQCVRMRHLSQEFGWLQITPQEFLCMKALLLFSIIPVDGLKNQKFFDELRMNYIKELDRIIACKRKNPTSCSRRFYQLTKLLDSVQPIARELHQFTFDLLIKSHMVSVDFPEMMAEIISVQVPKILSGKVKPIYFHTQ
Description: (§1) The androgen receptor (AR) agonistic and antagonistic activity of the compositions of the invention in the L929 cells which express the AR but not the PR was evaluated as described in Zhang et al., Steroids, 65(10–11): 637–643 (October–November 2000).
(§2) Cells were plated in 96-well plates at 25,000 cells/well in DMEM (Bio Whittaker) with 10% (v/v) fetal bovine serum (FBS). The next day, cells were infected with the adenovirus PRE-tk-luciferase reporter construct (2×10^9 pfu/ml particles) and kept in DMEM containing 10% charcoal stripped FBS for an additional 24 hours. […] To test the anti-androgenic activity, cells were co-treated with 3 nM DHT. Luciferase activity was measured 24 hours following the treatment.

[2] = target: T1, androgen receptor (AR); experiment: Anti-androgenic (AR antagonistic) activity, PRE-tk-luciferase reporter in L929 cells co-treated with DHT; format: cell-based; settings: co-treated with 3 nM DHT
Description: as §1, §2

Cn1c(C#N)ccc1-c1ccc2c(c1)C(C)(C)OC(=S)N2 [5-(4,4-dimethyl-2-thioxo-1,4-dihydro-2H-3,1-benzoxazin-6-yl)-1-methyl-1H-pyrrole-2-carbonitrile] was tested, and the agonistic activity [1] was “only marginal agonistic activity”, the IC50 ([2]; L929 cells expressing AR but not PR, PRE-tk-luciferase reporter, luciferase measured 24 hours after treatment) was 109 nM and the antagonistic activity ([2]; L929 cells, nine point dose response) was “significant antagonistic activity”.
